Source: patent publication US9611251B2, “Substituted piperidine compounds and their use as orexin receptor modulators” (Janssen Pharmaceutica NV, priority 2013, dated 2017)
Where a name gives a salt, the structure may show the parent alone. Read-outs that look alike come from different tables or passages of the source.

Tests used:
human orexin 2 receptor = human orexin 2 receptor (Homo sapiens (Human), UniProt O43614); assay: Human orexin 2 receptor radioligand binding ([3H]-EMPA); conditions: averages of 2-20 runs, read-out: hOX2 Ki
Sequence of human orexin 2 receptor (O43614 whole entry): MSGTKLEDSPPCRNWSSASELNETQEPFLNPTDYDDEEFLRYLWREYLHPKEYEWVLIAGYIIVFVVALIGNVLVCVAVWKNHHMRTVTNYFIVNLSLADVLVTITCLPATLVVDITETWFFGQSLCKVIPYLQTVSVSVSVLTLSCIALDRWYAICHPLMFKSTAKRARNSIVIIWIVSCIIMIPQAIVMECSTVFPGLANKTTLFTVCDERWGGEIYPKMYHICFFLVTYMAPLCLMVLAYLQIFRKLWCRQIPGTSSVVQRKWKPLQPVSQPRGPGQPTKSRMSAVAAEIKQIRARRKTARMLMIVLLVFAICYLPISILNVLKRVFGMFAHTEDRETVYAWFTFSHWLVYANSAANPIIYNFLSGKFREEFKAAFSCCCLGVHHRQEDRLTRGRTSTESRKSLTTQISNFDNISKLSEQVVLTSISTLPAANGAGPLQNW
Method: (§1) Data are analyzed using pc-Sandy macro and graphed on Graphpad Prism 5. For analysis, each concentration point is averaged from triplicate values and the averaged values are plotted on Graphpad Prism. The IC50 was determined by applying the following equation (GraphPad Prism 5.0, SanDiego) for one site competition where X=log (concentration) and Y=specific binding. Top denotes the total [^3H]-(1-(5-(2-fluoro-phenyl)-2-methyl-thiazol-4-yl)-1-((S)-2-(5-phenyl-(1,3,4)oxadiazol-2-ylmethyl)-pyrrolidin-1-yl)-methanone) binding, bottom denotes the nonspecific [^3H]-(1-(5-(2-fluoro-phenyl)-2-methyl-thiazol-4-yl)-1-((S)-2-(5-phenyl-(1,3,4)oxadiazol-2-ylmethyl)-pyrrolidin-1-yl)-methanone) binding. Graphpad Prism calculates Ki value from IC50 and the pre-determined Kd values for [^3H]-(1-(5-(2-fluoro-phenyl)-2-methyl-thiazol-4-yl)-1-((S)-2-(5-phenyl-(1,3,4)oxadiazol-2-ylmethyl)-pyrrolidin-1-yl)-methanone) and [3H]-EMPA. The Ki for each compound is then uploaded into 3DX. Each run comprises individual compounds in triplicate.
Human Orexin 2 Receptor Radioligand Binding Studies
HEK293 stably expressing human orexin 2 receptor (Genebank accession number NM_001526) were grown to confluency in DMEM (Hyclone, cat #SH30022), 10% FBS, 1×Pen/Strep, 1× NaPyruvate, 10 mM HEPES, 600 ug/ml G418 media on 150 cm^2 tissue culture plates, washed with 5 mM EDTA in PBS (HyClone Dulbecco's Phosphate Buffered Saline 1× with Calcium and Magnesium, Cat #SH30264.01, hereafter referred to simply as PBS) and scraped into 50 ml tubes. After centrifugation (2K×G, 5 min at 4° C.), the supernatant was aspirated and the pellets frozen and stored at −80° C. […] Each cell pellet from a 15 cm plate was resuspended in 10 mL, stored on ice, and homogenized for 45 sec just prior to addition to the reactions. Competition binding experiments in 96 well polypropylene plates were performed using [^3H]-EMPA (Moraveck Corporation, specific activity=29.6 Ci/mmol), diluted to a 5 nM concentration in PBS (2 nM final concentration). […] The final concentration of DMSO in the reactions is equal to or less than 0.1%. Total and nonspecific binding was determined in the absence and presence of 10 μM almorexant. The total volume of each reaction is 200 μL (20 μL of diluted compounds, 80 μL of [^3H]-EMPA diluted in PBS and 100 μL of the cell suspension). […] The plates were washed 3 times by aspirating 30 ml PBS through the plates. Plates were dried in 55° C. oven for 60 min, scintillation fluid was added, and the radioactivity was counted on a Topcount (Packard).

rat orexin 1 receptor = rat orexin 1 receptor (Rattus norvegicus, UniProt P56718); assay: Rat orexin 1 receptor radioligand binding
Method: as §1
(§2) Rat and Human Orexin 1 Receptor Radioligand Binding Studies
After centrifugation (2K×G, 5 min at 4° C.), the supernatant was aspirated and the pellets frozen and stored at −80° C. […] Each cell pellet from a 15 cm plate was resuspended in 10 mL, stored on ice, and homogenized for 45 sec prior to addition to the reactions. Competition binding experiments in 96 well polypropylene plates were performed using [^3H]-(1-(5-(2-fluoro-phenyl)-2-methyl-thiazol-4-yl)-1-((S)-2-(5-phenyl-(1,3,4)oxadiazol-2-ylmethyl)-pyrrolidin-1-yl)-methanone) (Moraveck Corporation, specific activity=35.3 Ci/mmol), diluted to a 10 nM concentration in PBS (4 nM final). […] The final concentration of DMSO in the reactions is equal to or less than 0.1%. Total and nonspecific binding was determined in the absence and presence of 10 μM almorexant. The total volume of each reaction is 200 μL (20 μL of diluted compounds, 80 μL of [^3H]-(1-(5-(2-fluoro-phenyl)-2-methyl-thiazol-4-yl)-1-((S)-2-(5-phenyl-(1,3,4)oxadiazol-2-ylmethyl)-pyrrolidin-1-yl)-methanone) diluted in PBS and 100 μL of the cell suspension). […] The plates were washed 3 times by aspirating 30 ml PBS through the plates. Plates were dried in 55° C. oven for 60 min, scintillation fluid was added, and the radioactivity was counted on a Topcount (Packard).

human orexin 1 receptor = human orexin 1 receptor (Homo sapiens, UniProt O43613); assay: Human orexin 1 receptor radioligand binding
Method: The in vitro affinity of the compounds of the invention for the rat/human orexin 1 and human orexin 2 receptors was determined by competitive radioligand binding using [^3H](1-(5-(2-fluoro-phenyl)-2-methyl-thiazol-4-yl)-1-((S)-2-(5-phenyl-(1,3,4)oxadiazol-2-ylmethyl)-pyrrolidin-1-yl)-methanone) (Langmead et al., 2004) and [^3H]EMPA (n-ethyl-2[96-methoxypyridin-3-yl)-(toluene-2-sulfonyl)-amino]-N-pyridin-3-ylmethyl acetamide), respectively (Langmead et al., 2004, British Journal of Pharmacology 141:340-346; Malherbe et al., 2004, British Journal of Pharmacology 156:1326-41).
as §1, §2
Human Embryonic Kidney 293 cells (HEK293) stably expressing rat orexin 1 receptor (Genebank accession number NM_001525) or Chinese ovary cells (CHO) stably expressing human orexin 1 receptor (Genebank accession number NM_001526) were grown to confluency in DMEM (Hyclone, cat #SH30022), 10% FBS, 1×Pen/Strep, 1× sodium pyruvate, 10 mM HEPES, 600 μg/mL G418 and DMEM/F12 (Gibco, Cat #11039), 10% FBS, 1×Pen/Strep, 600 μg/mL G418 media, respectively on 150 cm^2 tissue culture plates, washed with 5 mM EDTA in PBS (HyClone Dulbecco's Phosphate Buffered Saline 1× with Calcium and Magnesium, Cat #SH30264.01, hereafter referred to simply as PBS) and scraped into 50 ml tubes. After centrifugation (2K×G, 5 min at 4° C.), the supernatant was aspirated and the pellets frozen and stored at −80° C. Cells were resuspended in PBS in the presence of 1 tablet of protease inhibitor cocktail (Roche, Cat. #11836145001) per 50 mL. Each cell pellet from a 15 cm plate was resuspended in 10 mL, stored on ice, and homogenized for 45 sec prior to addition to the reactions. Competition binding experiments in 96 well polypropylene plates were performed using [^3H]-(1-(5-(2-fluoro-phenyl)-2-methyl-thiazol-4-yl)-1-((S)-2-(5-phenyl-(1,3,4)oxadiazol-2-ylmethyl)-pyrrolidin-1-yl)-methanone) (Moraveck Corporation, specific activity=35.3 Ci/mmol), diluted to a 10 nM concentration in PBS (4 nM final). […] The final concentration of DMSO in the reactions is equal to or less than 0.1%. Total and nonspecific binding was determined in the absence and presence of 10 μM almorexant. The total volume of each reaction is 200 μL (20 μL of diluted compounds, 80 μL of [^3H]-(1-(5-(2-fluoro-phenyl)-2-methyl-thiazol-4-yl)-1-((S)-2-(5-phenyl-(1,3,4)oxadiazol-2-ylmethyl)-pyrrolidin-1-yl)-methanone) diluted in PBS and 100 μL of the cell suspension). Reactions were run for 60 min at room temperature and terminated by filtration through GF/C filter plates (PerkinElmer, Cat. #6005174) presoaked in 0.3% polyethylenimine using the cell harvester (PerkinElmer Filtermate). The plates were washed 3 times by aspirating 30 ml PBS through the plates. Plates were dried in 55° C. oven for 60 min, scintillation fluid was added, and the radioactivity was counted on a Topcount (Packard).

[1] = rat orexin 1 receptor radioligand binding, averages of 2-20 runs, read-out: rOX1 Ki
[2] = human orexin 1 receptor radioligand binding, averages of 2-20 runs, read-out: hOX1 Ki

| SMILES | Ki (human orexin 2 receptor) | Ki (rat orexin 1 receptor; [1]) | Ki (human orexin 1 receptor; [2]) | Ki (rat orexin 1 receptor) | Ki (human orexin 1 receptor) |
| --- | --- | --- | --- | --- | --- |
| C[C@H]1[C@H](Nc2ccc(C(F)(F)F)cn2)CCCN1C(=O)c1ccc(F)cc1-n1nccn1 (relative stereo) [Example 192, (4-fluoro-2-(2H-1,2,3-triazol-2-yl)phenyl)((2S*,3R*)-2-methyl-3-((5-(trifluoromethyl)pyridin-2-yl)amino)piperidin-1-yl)methanone] | 0.543 µM | 0.027 µM | 0.025 µM |  |  |
| Cc1cnc(C(=O)N2CCC[C@@H](Oc3ccc(Cl)cn3)[C@@H]2C)c(-c2ncccn2)c1 [Example 216, ((2S,3R)-3-((5-chloropyridin-2-yl)oxy)-2-methylpiperidin-1-yl)(5-methyl-3-(pyrimidin-2-yl)pyridin-2-yl)methanone] | 8.2 µM | 0.052 µM | 0.089 µM |  |  |
| C[C@H]1[C@H](Oc2ncc(C(F)(F)F)cc2F)CCCN1C(=O)c1ccccc1-c1ncccn1 [Example 154, ((2S,3R)-3-((3-fluoro-5-(trifluoromethyl)pyridin-2-yl)oxy)-2-methylpiperidin-1-yl)(2-(pyrimidin-2-yl)phenyl)methanone] | 0.526 µM | 0.046 µM | 0.022 µM |  |  |
| Cc1cccc(C(=O)N2CCC[C@@H](Oc3ncc(C(F)(F)F)cc3F)[C@@H]2C)c1-n1nccn1 [Example 158, ((2S,3R)-3-((3-fluoro-5-(trifluoromethyl)pyridin-2-yl)oxy)-2-methylpiperidin-1-yl)(3-methyl-2-(2H-1,2,3-triazol-2-yl)phenyl)methanone] | 0.575 µM | 0.036 µM | 0.034 µM |  |  |
| COc1ccc(C(=O)N2CCC[C@@H](Nc3ccc(C(F)(F)F)cn3)[C@@H]2C)c(-n2nccn2)c1 [Example 97, (4-methoxy-2-(2H-1,2,3-triazol-2-yl)phenyl)((2S,3R)-2-methyl-3-((5-(trifluoromethyl)pyridin-2-yl)amino)piperidin-1-yl)methanone] | 4.9 µM | 0.033 µM | 0.034 µM |  |  |
| Cc1ccc(-c2ncco2)c(C(=O)N2CCC[C@@H](Nc3ccc(C(F)(F)F)cn3)[C@@H]2C)n1 (racemic) [Example 22, (±)-trans-(2-methyl-3-((5-(trifluoromethyl)pyridin-2-yl)amino)piperidin-1-yl)(6-methyl-3-(oxazol-2-yl)pyridin-2-yl)methanone hydrochloride] |  |  |  | 0.036 µM | 0.021 µM |
| Cc1cnc(C(=O)N2CCC[C@@H](Nc3cnc(Cl)cn3)[C@@H]2C)c(-n2nccn2)c1 (relative stereo) [Example 182, ((2S*,3R*)-3-((5-chloropyrazin-2-yl)amino)-2-methylpiperidin-1-yl)(5-methyl-3-(2H-1,2,3-triazol-2-yl)pyridin-2-yl)methanone] |  | 0.093 µM | 0.148 µM |  |  |
| Cc1noc(-c2cc(F)ccc2C(=O)N2CCC[C@@H](Nc3ccc(C(F)(F)F)cn3)[C@@H]2C)n1 (relative stereo) [Example 190, (4-fluoro-2-(3-methyl-1,2,4-oxadiazol-5-yl)phenyl)((2S*,3R*)-2-methyl-3-((5-(trifluoromethyl)pyridin-2-yl)amino)piperidin-1-yl)methanone] |  | 0.026 µM | 0.018 µM |  |  |

Continued, in another order:

| Ki (human orexin 2 receptor) | Ki (rat orexin 1 receptor; [1]) | Ki (human orexin 1 receptor; [2]) | SMILES | Ki (rat orexin 1 receptor) | Ki (human orexin 1 receptor) |
| --- | --- | --- | --- | --- | --- |
| 0.393 µM | 0.023 µM | 0.025 µM | Cc1cccc(C(=O)N2CCC[C@@H](Oc3ncc(C(F)(F)F)cc3F)[C@@H]2C)c1-c1ncccn1 [Example 220, ((2S,3R)-3-((3-fluoro-5-(trifluoromethyl)pyridin-2-yl)oxy)-2-methylpiperidin-1-yl)(3-methyl-2-(pyrimidin-2-yl)phenyl)methanone] |  |  |
| 1.3 µM | 0.051 µM | 0.055 µM | CCOc1ccc(C)nc1C(=O)N1CCC[C@@H](Oc2ccc(C(F)(F)F)cn2)[C@@H]1C [Example 219, (3-ethoxy-6-methylpyridin-2-yl)((2S,3R)-2-methyl-3-((5-(trifluoromethyl)pyridin-2-yl)oxy)piperidin-1-yl)methanone] |  |  |
| 0.374 µM | 0.012 µM | 0.035 µM | Cc1ccc(-n2nccn2)c(C(=O)N2CCC[C@@H](Oc3ccc(Cl)cn3)[C@@H]2C)n1 [Example 215, ((2S,3R)-3-((5-chloropyridin-2-yl)oxy)-2-methylpiperidin-1-yl)(6-methyl-3-(2H-1,2,3-triazol-2-yl)pyridin-2-yl)methanone] |  |  |
| 2.4 µM | 0.154 µM | 0.206 µM | CCOc1ccc(C)nc1C(=O)N1CCC[C@@H](Nc2ncc(C(F)(F)F)cn2)[C@@H]1C (relative stereo) [Example 199, (3-ethoxy-6-methylpyridin-2-yl)((2S*,3R*)-2-methyl-3-((5-(trifluoromethyl)pyrimidin-2-yl)amino)piperidin-1-yl)methanone] |  |  |
| 0.46 µM | 0.021 µM | 0.013 µM | C[C@H]1[C@H](Oc2ccc(C(F)(F)F)cn2)CCCN1C(=O)c1cccc(F)c1-n1nccn1 [Example 124, (3-fluoro-2-(2H-1,2,3-triazol-2-yl)phenyl)((2S,3R)-2-methyl-3-((5-(trifluoromethyl)pyridin-2-yl)oxy)piperidin-1-yl)methanone] |  |  |
